In patent US6696076B2, “Immune response modifier compounds for treatment of TH2 mediated and related diseases” (3M Innovative Properties Company, priority 1996, dated 2004):

Tests used:
[1] = test system: sephadex-induced eosinophilia in the lung; assay: Sephadex-induced lung eosinophilia in rats (EPO assay); format: in vivo; details: rat; for dose capable of inhibiting sephadex-induced eosinophilia in the lung: 60 minutes prior to challenge; for maximum inhibition of sephadex-induced eosinophilia: maximum over doses and routes tested
[2] = test system: ovalbumin-induced eosinophilia in the lung; assay: Ovalbumin-induced lung eosinophilia in the guinea pig (EPO assay); format: in vivo; details: for maximum inhibition of ovalbumin-induced eosinophilia: maximum over doses and routes tested
[3] = test system: IL-5 production in spleen cells from OVA-sensitized CFW mice; assay: Inhibition of mouse spleen cell production of IL-5 (OVA-stimulated cultures, ELISA); format: cell-based; details: for IL-5 Concentration: 96 hr
[4] = test system: antigen induced IL-5 production; assay: Antigen induced IL-5 production in vivo (serum, OVA-challenged sensitized mice); set-up: species or system mouse; details: for −24 hr IL-5: 24 hrs before OVA challenge; for −24 hr IL-5 / 0 hr IL-5: serum 7 hrs after OVA; for 0 hr IL-5: same time as OVA challenge
Procedure: CFW male mice were sensitized with OVA as described above. 14 days after the last sensitization animals were challenged with 100 μg OVA sc. […] Serum was collected 7 hrs after OVA and analyzed for IL-5 and IFN-γ concentrations. Results are expressed as the mean cytokine concentration ±SEM.

[5] = test system: antigen-induced eosinophilia in the lung; assay: Antigen-induced lung eosinophilia after aerosol OVA challenge (EPO in lung); format: in vivo, mouse; details: 1 mg/kg, 15 minutes prior to antigen challenge, mice
Procedure: Concentrations of IL-4 were reduced in the BAL of these mice by 43% when compared to animals receiving antigen alone. […] Fourteen days after boosting animals were dosed by nebulization for 30 minutes using a 1% OVA solution. This was repeated on days 17 and 20. Twenty-four hours after the final nebulized dose animals were sacrificed and bronchoalveolar lavage (BAL) was performed using 1.0 ml of PBS containing 1% fetal bovine serum. BAL was stored at −70° C. before analyzed. Lungs were then removed and placed in 0.5% cetrimide, 0.05 M KH2PO4 for homogenization of 4×30 seconds with 30 second cooling intervals between on ice. Centrifugation was then done at 1300 rpm (400×g) for 30 minutes at 4C. Pellet was collected and resuspended in 4 ml 0.5% cetrimide, 0.05 M KH2PO4 buffer. Samples were then frozen until sonication and the EPO assessment. This was followed by sonication for 3×15 seconds with 30 second intervals on ice. […] To start the reaction, 1 ul of 30% hydrogen peroxide was added to the cuvette. The optical density reading was measured spectrophotometrically over a 4 minute time interval at 490 nm in a Beckman Du-64 spectrophotometer.

IL-5 = assay: Antigen-induced IL-5 in BAL after aerosol OVA challenge (ELISA); format: in vivo, mouse; details: 1 mg/kg, 15 minutes prior to antigen challenge, mice
Procedure: (§1) Concentrations of IL-4 were reduced in the BAL of these mice by 43% when compared to animals receiving antigen alone. […] Fourteen days after boosting animals were dosed by nebulization for 30 minutes using a 1% OVA solution. This was repeated on days 17 and 20. Twenty-four hours after the final nebulized dose animals were sacrificed and bronchoalveolar lavage (BAL) was performed using 1.0 ml of PBS containing 1% fetal bovine serum. BAL was stored at −70° C. before analyzed. Lungs were then removed and placed in 0.5% cetrimide, 0.05 M KH2PO4 for homogenization of 4×30 seconds with 30 second cooling intervals between on ice. Centrifugation was then done at 1300 rpm (400×g) for 30 minutes at 4C. Pellet was collected and resuspended in 4 ml 0.5% cetrimide, 0.05 M KH2PO4 buffer. Samples were then frozen until sonication and the EPO assessment. This was followed by sonication for 3×15 seconds with 30 second intervals on ice. BAL were analyzed by ELISA (Endogen) for IL-5 and IL-4 concentrations with data being presented as the average from 11 animals ±SEM. […] IL-5 concentration is in pg/ml.

IL-4 = assay: Antigen-induced IL-4 in BAL after aerosol OVA challenge (ELISA); format: in vivo, mouse; details: 1 mg/kg, 15 minutes prior to antigen challenge, mice
Procedure: as §1

[6] = intratracheal instillation, 0.03 mg/kg
[7] = intratracheal instillation, 0.1 mg/kg
[8] = intratracheal instillation, 0.3 mg/kg
[9] = intratracheal instillation, 0.7 mg/kg
[10] = oral administration, 30.0 mg/kg
[11] = aerosol inhalation, 0.003 mg/kg
[12] = intraperitoneal administration, 0.003 mg/kg
[13] = intraperitoneal administration, 0.01 mg/kg
[14] = intraperitoneal administration, 0.03 mg/kg
[15] = intraperitoneal administration, 3.0 mg/kg
[16] = oral administration, 0.001 mg/kg
[17] = oral administration, 0.01 mg/kg

Cc1nc2c(N)nc3ccccc3c2n1CC(C)(C)O [Cmpd 1, 4-amino-α,α,-2-trimethyl-1H-imidazo[4,5-c]quinoline-1-ethanol]
% Inhibition [1, 6]: 0% | EPO Concentration in the Lung (χ ± SE) [1, 6]: 0.7107 ± 0.129 | % Inhibition [1, 7]: 9% | EPO Concentration in the Lung (χ ± SE) [1, 7]: 0.5030 ± 0.089 | % Inhibition [1, 8]: 44% | EPO Concentration in the Lung (χ ± SE) [1, 8]: 0.3440 ± 0.201 | % Inhibition [1, 9]: 77% | EPO Concentration in the Lung (χ ± SE) [1, 9]: 0.1967 ± 0.080 | dose capable of inhibiting sephadex-induced eosinophilia in the lung ([1]; intratracheal instillation): ≥ 0.7 mg/kg | maximum inhibition of sephadex-induced eosinophilia [1]: 95% | % Inhibition ([1]; oral administration, 0.1 mg/kg): 0% | EPO Concentration in the Lung (χ ± SE) ([1]; oral administration, 0.1 mg/kg): 0.4240 ± 0.138 | % Inhibition ([1]; oral administration, 0.7 mg/kg): 64% | EPO Concentration in the Lung (χ ± SE) ([1]; oral administration, 0.7 mg/kg): 0.1497 ± 0.030 | % Inhibition ([1]; oral administration, 1.0 mg/kg): 87% | EPO Concentration in the Lung (χ ± SE) ([1]; oral administration, 1.0 mg/kg): 0.0780 ± 0.039 | % Inhibition ([1]; oral administration, 5.0 mg/kg): 87% | EPO Concentration in the Lung (χ ± SE) ([1]; oral administration, 5.0 mg/kg): 0.0790 ± 0.030 | % Inhibition [1, 10]: 95% | EPO Concentration in the Lung (χ ± SE) [1, 10]: 0.0550 ± 0.013 | dose capable of inhibiting sephadex-induced eosinophilia in the lung ([1]; oral administration): ≥ 0.7 mg/kg | % Inhibition [2, 11]: 13% | EPO Concentration in the Lung (χ ± SE) [2, 11]: 0.2620 ± 0.116 | % Inhibition ([2]; aerosol inhalation, 0.01 mg/kg): 44% | EPO Concentration in the Lung (χ ± SE) ([2]; aerosol inhalation, 0.01 mg/kg): 0.1806 ± 0.035 | dose capable of inhibiting ovalbumin-induced eosinophilia in the lung ([2]; aerosol inhalation, 15 minutes prior to challenge): 0.01 mg/kg | % Inhibition [2, 12]: 28% | EPO Concentration in the Lung (χ ± SE) [2, 12]: 0.2435 ± 0.0515 | % Inhibition [2, 13]: 54% | EPO Concentration in the Lung (χ ± SE) [2, 13]: 0.1690 ± 0.053 | % Inhibition [2, 14]: 54% | EPO Concentration in the Lung (χ ± SE) [2, 14]: 0.1693 ± 0.060 | % Inhibition [2, 15]: 92% | EPO Concentration in the Lung (χ ± SE) [2, 15]: 0.0580 ± 0.018 | dose capable of inhibiting ovalbumin-induced eosinophilia in the lung ([2]; intraperitoneal administration, 15 minutes prior to challenge): 0.01 mg/kg | maximum inhibition of ovalbumin-induced eosinophilia [2]: 92%

CCOCc1nc2c(N)nc3ccccc3c2n1CC(C)(C)O [Cmpd 2, 4-amino-2-ethoxymethyl-α,α-dimethyl-1H-imidazo[4,5-c]quinoline-1-ethanol]
IL-5 Concentration ([3]; OVA 100 μg/ml + IRM Compound 0.01 μg/ml, mean ±SEM): 125 ± 46 pg/mL | IL-5 Concentration ([3]; OVA 100 μg/ml + IRM Compound 0.1 μg/ml, mean ±SEM): 25 ± 8 pg/mL | IL-5 Concentration ([3]; OVA 100 μg/ml + IRM Compound 1 μg/ml, mean ±SEM): 22 ± 3 pg/mL | IL-5 Concentration ([3]; OVA 100 μg/ml + IRM Compound 10 μg/ml, mean of triplicate cultures ±SEM): 12 ± 2 pg/mL | inhibition of IL-5 production ([3]; concentrations as low as 0.01 μg/ml): greater than 60% | inhibition of IL-5 production ([3]; higher concentrations (above 0.01 μg/ml)): 100% | inhibition of IL-5 production ([4]; doses as low as 0.01 mg/kg po): at least 65% | −24 hr IL-5 ([4]; free-base po 0.01 mg/kg): 78 pg/mL | 0 hr IL-5 ([4]; free-base po 0.01 mg/kg): 96 pg/mL | −24 hr IL-5 ([4]; free-base po 0.1 mg/kg): 49 pg/mL | 0 hr IL-5 ([4]; free-base po 0.1 mg/kg): 62 pg/mL | −24 hr IL-5 ([4]; free-base po 1.0 mg/kg): 38 pg/mL | 0 hr IL-5 ([4]; free-base po 1.0 mg/kg): 40 pg/mL | −24 hr IL-5 ([4]; free-base po 10.0 mg/kg): 8 pg/mL | 0 hr IL-5 ([4]; free-base po 10.0 mg/kg): 29 pg/mL | EPO Concentration in Lung [5]: 352 ± 30 ABS | inhibition of antigen-induced eosinophilia in the lung (value in parentheses) [5]: 78% | IL-5 Concentration in BAL (IL-5): 13 ± 2 pg/mL | reduction of BAL IL-5 concentration (value in parentheses) (IL-5): 78% | IL-4 Concentration in BAL (IL-4): 53 ± 8 pg/mL | reduction of BAL IL-4 concentration (value in parentheses) (IL-4): 43% | reduction of BAL IL-4 concentration (value in parentheses) (IL-4; listed as IRM Compound): 42% | maximum inhibition of sephadex-induced eosinophilia [1]: 87% | % Inhibition [1, 16]: 0% | EPO Concentration in the Lung (χ ± SE) [1, 16]: 0.6775 ± 0.140 | % Inhibition [1, 17]: 32% | EPO Concentration in the Lung (χ ± SE) [1, 17]: 0.4908 ± 0.070 | % Inhibition ([1]; oral administration, 0.1 mg/kg): 84% | EPO Concentration in the Lung (χ ± SE) ([1]; oral administration, 0.1 mg/kg): 0.2000 ± 0.060 | % Inhibition ([1]; oral administration, 1.0 mg/kg): 87% | EPO Concentration in the Lung (χ ± SE) ([1]; oral administration, 1.0 mg/kg): 0.1824 ± 0.060 | dose capable of inhibiting sephadex-induced eosinophilia in the lung ([1]; oral administration): ≥ 0.01 mg/kg | maximum inhibition of ovalbumin-induced eosinophilia [2]: 96% | % Inhibition [2, 16]: 19% | EPO Concentration in the Lung (χ ± SE) [2, 16]: 0.1862 ± 0.030 | % Inhibition [2, 17]: 49% | EPO Concentration in the Lung (χ ± SE) [2, 17]: 0.1181 ± 0.020 | % Inhibition ([2]; oral administration, 0.1 mg/kg): 95% | EPO Concentration in the Lung (χ ± SE) ([2]; oral administration, 0.1 mg/kg): 0.0118 ± 0.005 | % Inhibition ([2]; oral administration, 1.0 mg/kg): 96% | EPO Concentration in the Lung (χ ± SE) ([2]; oral administration, 1.0 mg/kg): 0.0084 ± 0.005 | dose capable of inhibiting ovalbumin-induced eosinophilia in the lung ([2]; oral administration, 60 minutes prior to challenge): 0.01 mg/kg
